Measured values from ChEMBL document CHEMBL1201862, “PubChem BioAssay data set” (2004).
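Growth conditions: 96-well plates. Treatment: test compound, 48 hours, 5 concentrations. Analysis: linear interpolation between bracketing concentrations; unreached endpoints set to highest concentration. At the GI50, growth is halved.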 Activity calls are given as the source filed them. No stated cut-off is given here; in the data, active = GI50 up to about 1.1 µM and inactive = higher.

How the values were obtained:
Experiment in all cases: inhibition of tumour cell growth, NCI panel, 48 h
COLO 205 = test system: COLO 205
DMS-114 = test system: DMS-114
HOP-62 = test system: HOP-62
HOP-92 = test system: HOP-92
K562 = test system: K562
KM12 = test system: KM12
M14 = test system: M14
Malme-3M = test system: Malme-3M
OVCAR-5 = test system: OVCAR-5
OVCAR-8 = test system: OVCAR-8
RXF 393 = test system: RXF 393
SF-295 = test system: SF-295
SK-MEL-5 = test system: SK-MEL-5
SK-OV-3 = test system: SK-OV-3
SNB-19 = test system: SNB-19
OVCAR-4 = test system: OVCAR-4
A498 = test system: A498

C=CNC(=O)NC(=O)CSc1nc(=O)c(-c2ccccc2NC(=O)C(F)(F)F)n[nH]1
GI50 (COLO 205): 47.5 µM (inactive) | GI50 (DMS-114): 21.1 µM (inactive) | GI50 (HOP-62): 94 µM (inactive) | GI50 (HOP-92): 21.6 µM (inactive) | GI50 (K562): > 100 µM (inactive) | GI50 (KM12): > 100 µM (inactive) | GI50 (M14): 23.4 µM (inactive) | GI50 (Malme-3M): 15.5 µM (inactive) | GI50 (OVCAR-5): > 100 µM (inactive) | GI50 (OVCAR-8): > 100 µM (inactive) | GI50 (RXF 393): > 100 µM (inactive) | GI50 (SF-295): 50 µM (inactive) | GI50 (SK-MEL-5): 0.569 µM (active) | GI50 (SK-OV-3): 47.6 µM (inactive) | GI50 (SNB-19): 32.2 µM (inactive)

O=C(c1ccc(Cl)cc1)N(C(=S)N1CCN(c2ccccn2)CC1)C1CCCCC1
GI50 (COLO 205): 44.4 µM (inactive) | GI50 (DMS-114): 34.9 µM (inactive) | GI50 (HOP-62): 71.8 µM (inactive) | GI50 (HOP-92): > 100 µM (inactive) | GI50 (K562): 37.6 µM (inactive) | GI50 (KM12): 68.1 µM (inactive) | GI50 (M14): > 100 µM (inactive) | GI50 (Malme-3M): > 100 µM (inactive) | GI50 (OVCAR-4): > 100 µM (inactive) | GI50 (OVCAR-5): > 100 µM (inactive) | GI50 (OVCAR-8): > 100 µM (inactive) | GI50 (RXF 393): 35.6 µM (inactive) | GI50 (SF-295): 74.1 µM (inactive) | GI50 (SK-MEL-5): 38.7 µM (inactive) | GI50 (SK-OV-3): > 100 µM (inactive) | GI50 (SNB-19): 96.4 µM (inactive)

CCc1c(Cc2[nH]c(Cc3[nH]c(C=O)c(C)c3CC)c(CC)c2CC)[nH]c(C=O)c1C
GI50 (COLO 205): > 100 µM (inactive) | GI50 (DMS-114): > 100 µM (inactive) | GI50 (HOP-62): > 100 µM (inactive) | GI50 (K562): > 100 µM (inactive) | GI50 (KM12): > 10 µM (inactive) | GI50 (M14): > 100 µM (inactive) | GI50 (Malme-3M): > 100 µM (inactive) | GI50 (OVCAR-8): > 100 µM (inactive) | GI50 (RXF 393): 39 µM (inactive) | GI50 (SF-295): > 100 µM (inactive) | GI50 (SK-MEL-5): > 100 µM (inactive) | GI50 (SK-OV-3): > 100 µM (inactive) | GI50 (SNB-19): > 100 µM (inactive)

O=C(O)c1ccccc1/N=N/c1ccc2oc(=O)c(C(=O)Nc3ccccc3)cc2c1
GI50 (COLO 205): 30.3 µM (inactive) | GI50 (DMS-114): 25.1 µM (inactive) | GI50 (HOP-62): 35.6 µM (inactive) | GI50 (K562): 39.6 µM (inactive) | GI50 (KM12): 31.8 µM (inactive) | GI50 (M14): 47.9 µM (inactive) | GI50 (Malme-3M): 23.7 µM (inactive) | GI50 (OVCAR-8): 38.1 µM (inactive) | GI50 (RXF 393): 28.4 µM (inactive) | GI50 (SF-295): 50.2 µM (inactive) | GI50 (SK-MEL-5): 28.4 µM (inactive) | GI50 (SK-OV-3): 52.8 µM (inactive) | GI50 (SNB-19): 32.3 µM (inactive)

Nc1cc(O)nc(SC2=NC(N)CC(O)C2)n1 (configuration not stated)
GI50 (COLO 205): > 100 µM (inactive) | GI50 (DMS-114): > 100 µM (inactive) | GI50 (HOP-62): > 100 µM (inactive) | GI50 (HOP-92): > 100 µM (inactive) | GI50 (K562): > 100 µM (inactive) | GI50 (KM12): > 100 µM (inactive) | GI50 (M14): > 100 µM (inactive) | GI50 (Malme-3M): > 100 µM (inactive) | GI50 (OVCAR-4): > 100 µM (inactive) | GI50 (OVCAR-5): > 100 µM (inactive) | GI50 (OVCAR-8): > 100 µM (inactive) | GI50 (SF-295): > 100 µM (inactive) | GI50 (SK-MEL-5): > 100 µM (inactive) | GI50 (SK-OV-3): > 100 µM (inactive) | GI50 (SNB-19): > 100 µM (inactive)

CCCN(CCCN)/[N+]([O-])=N\O
GI50 (COLO 205): > 100 µM (inactive) | GI50 (DMS-114): > 100 µM (inactive) | GI50 (HOP-62): > 100 µM (inactive) | GI50 (HOP-92): > 100 µM (inactive) | GI50 (K562): > 100 µM (inactive) | GI50 (KM12): > 100 µM (inactive) | GI50 (M14): > 100 µM (inactive) | GI50 (Malme-3M): > 100 µM (inactive) | GI50 (OVCAR-4): > 100 µM (inactive) | GI50 (OVCAR-5): > 100 µM (inactive) | GI50 (OVCAR-8): > 100 µM (inactive) | GI50 (RXF 393): > 100 µM (inactive) | GI50 (SF-295): > 100 µM (inactive) | GI50 (SK-MEL-5): > 100 µM (inactive) | GI50 (SK-OV-3): > 100 µM (inactive) | GI50 (SNB-19): > 100 µM (inactive)

Nc1ccn(C2(CO)C=C(CO)C(O)C2O)c(=O)n1 (configuration not stated)
GI50 (A498): > 25.8 µM (inactive) | GI50 (COLO 205): > 25.8 µM (inactive) | GI50 (DMS-114): > 25.8 µM (inactive) | GI50 (HOP-62): > 25.8 µM (inactive) | GI50 (K562): > 25.8 µM (inactive) | GI50 (KM12): > 25.8 µM (inactive) | GI50 (M14): > 25.8 µM (inactive) | GI50 (Malme-3M): > 25.8 µM (inactive) | GI50 (OVCAR-4): > 25.8 µM (inactive) | GI50 (OVCAR-8): > 25.8 µM (inactive) | GI50 (RXF 393): > 25.8 µM (inactive) | GI50 (SK-MEL-5): > 25.8 µM (inactive) | GI50 (SK-OV-3): > 25.8 µM (inactive) | GI50 (SNB-19): > 25.8 µM (inactive)
